How the values were obtained:
Assay in all cases: KINOMEscan
Type in all cases: binding
AMPK-alpha1 = AMPK-alpha1 (Homo sapiens (Human), UniProt Q13131); details: AMPK-alpha1, 10000 nM; read-out: Percent Control
PRKCQ = PRKCQ (Homo sapiens (Human), UniProt Q04759); details: 10000 nM, read-out: Percent Control
BMPR1A = BMPR1A (Homo sapiens (Human), UniProt P36894); details: 10000 nM, read-out: Percent Control
PIK3C2G = PIK3C2G (Homo sapiens (Human), UniProt O75747); details: 10000 nM, read-out: Percent Control
[1] = target: RSK4(Kin.Dom.2-C-terminal) (Homo sapiens (Human), UniProt Q9UK32); details: 10000 nM, read-out: Percent Control
[2] = target: RSK3(Kin.Dom.1-N-terminal) (Homo sapiens (Human), UniProt Q15349); details: 10000 nM, read-out: Percent Control
ACVR1 = ACVR1 (Homo sapiens (Human), UniProt Q04771); details: ACVR1, 10000 nM; read-out: Percent Control
BRSK1 = BRSK1 (Homo sapiens (Human), UniProt Q8TDC3); details: BRSK1, 10000 nM; read-out: Percent Control
[3] = target: RSK2(Kin.Dom.1-N-terminal) (Homo sapiens (Human), UniProt P51812); details: 10000 nM, read-out: Percent Control
PYK2 = PYK2 (Homo sapiens (Human), UniProt Q14289); details: PYK2, 10000 nM; read-out: Percent Control
PIK3CA(C420R) = PIK3CA(C420R) (Homo sapiens (Human), UniProt P42336, C420R); details: 10000 nM, read-out: Percent Control
CLK3 = CLK3 (Homo sapiens (Human), UniProt P49761); details: CLK3, 10000 nM; read-out: Percent Control
PFPK5(P. falciparum) = PFPK5(P. falciparum) (Plasmodium falciparum (isolate 3D7), UniProt P61075); details: 10000 nM, read-out: Percent Control
EPHA8 = EPHA8 (Homo sapiens (Human), UniProt P29322); details: EPHA8, 10000 nM; read-out: Percent Control
MST1R = MST1R (Homo sapiens (Human), UniProt Q04912); details: 10000 nM, read-out: Percent Control
PLK3 = PLK3 (Homo sapiens (Human), UniProt Q9H4B4); details: PLK3, 10000 nM; read-out: Percent Control
ERK5 = ERK5 (Homo sapiens (Human), UniProt Q13164); details: ERK5, 10000 nM; read-out: Percent Control
BMPR1B = BMPR1B (Homo sapiens (Human), UniProt O00238); details: 10000 nM, read-out: Percent Control
PFTK1 = PFTK1 (Homo sapiens (Human), UniProt O94921); details: PFTK1, 10000 nM; read-out: Percent Control
CAMK2B = CAMK2B (Homo sapiens (Human), UniProt Q13554); details: 10000 nM, read-out: Percent Control
MAP4K3 = MAP4K3 (Homo sapiens (Human), UniProt Q8IVH8); details: MAP4K3, 10000 nM; read-out: Percent Control
PFCDPK1(P. falciparum) = PFCDPK1(P. falciparum) (Plasmodium falciparum (isolate 3D7), UniProt P62344); details: 10000 nM, read-out: Percent Control
PIK3C2B = PIK3C2B (Homo sapiens (Human), UniProt O00750); details: 10000 nM, read-out: Percent Control
TNIK = TNIK (Homo sapiens (Human), UniProt Q9UKE5); details: 10000 nM, read-out: Percent Control
CTK = CTK (Homo sapiens (Human), UniProt P42679); details: 10000 nM, read-out: Percent Control
PAK1 = PAK1 (Homo sapiens (Human), UniProt Q13153); details: PAK1, 10000 nM; read-out: Percent Control
AKT2 = AKT2 (Homo sapiens (Human), UniProt P31751); details: AKT2, 10000 nM; read-out: Percent Control
MINK = MINK (Homo sapiens (Human), UniProt Q8N4C8); details: 10000 nM, read-out: Percent Control
DAPK2 = DAPK2 (Homo sapiens (Human), UniProt Q9UIK4); details: DAPK2, 10000 nM; read-out: Percent Control
CSNK2A1 = CSNK2A1 (Homo sapiens (Human), UniProt P68400); details: CSNK2A1, 10000 nM; read-out: Percent Control
CAMK1 = CAMK1 (Homo sapiens (Human), UniProt Q14012); details: CAMK1, 10000 nM; read-out: Percent Control
RET(V804L) = RET(V804L) (Homo sapiens (Human), UniProt P07949, V804L); details: 10000 nM, read-out: Percent Control
PAK6 = PAK6 (Homo sapiens (Human), UniProt Q9NQU5); details: PAK6, 10000 nM; read-out: Percent Control
CLK4 = CLK4 (Homo sapiens (Human), UniProt Q9HAZ1); details: CLK4, 10000 nM; read-out: Percent Control
PIK3CG = PIK3CG (Homo sapiens (Human), UniProt P48736); details: 10000 nM, read-out: Percent Control
Sequence of PIK3CG (P48736 whole entry): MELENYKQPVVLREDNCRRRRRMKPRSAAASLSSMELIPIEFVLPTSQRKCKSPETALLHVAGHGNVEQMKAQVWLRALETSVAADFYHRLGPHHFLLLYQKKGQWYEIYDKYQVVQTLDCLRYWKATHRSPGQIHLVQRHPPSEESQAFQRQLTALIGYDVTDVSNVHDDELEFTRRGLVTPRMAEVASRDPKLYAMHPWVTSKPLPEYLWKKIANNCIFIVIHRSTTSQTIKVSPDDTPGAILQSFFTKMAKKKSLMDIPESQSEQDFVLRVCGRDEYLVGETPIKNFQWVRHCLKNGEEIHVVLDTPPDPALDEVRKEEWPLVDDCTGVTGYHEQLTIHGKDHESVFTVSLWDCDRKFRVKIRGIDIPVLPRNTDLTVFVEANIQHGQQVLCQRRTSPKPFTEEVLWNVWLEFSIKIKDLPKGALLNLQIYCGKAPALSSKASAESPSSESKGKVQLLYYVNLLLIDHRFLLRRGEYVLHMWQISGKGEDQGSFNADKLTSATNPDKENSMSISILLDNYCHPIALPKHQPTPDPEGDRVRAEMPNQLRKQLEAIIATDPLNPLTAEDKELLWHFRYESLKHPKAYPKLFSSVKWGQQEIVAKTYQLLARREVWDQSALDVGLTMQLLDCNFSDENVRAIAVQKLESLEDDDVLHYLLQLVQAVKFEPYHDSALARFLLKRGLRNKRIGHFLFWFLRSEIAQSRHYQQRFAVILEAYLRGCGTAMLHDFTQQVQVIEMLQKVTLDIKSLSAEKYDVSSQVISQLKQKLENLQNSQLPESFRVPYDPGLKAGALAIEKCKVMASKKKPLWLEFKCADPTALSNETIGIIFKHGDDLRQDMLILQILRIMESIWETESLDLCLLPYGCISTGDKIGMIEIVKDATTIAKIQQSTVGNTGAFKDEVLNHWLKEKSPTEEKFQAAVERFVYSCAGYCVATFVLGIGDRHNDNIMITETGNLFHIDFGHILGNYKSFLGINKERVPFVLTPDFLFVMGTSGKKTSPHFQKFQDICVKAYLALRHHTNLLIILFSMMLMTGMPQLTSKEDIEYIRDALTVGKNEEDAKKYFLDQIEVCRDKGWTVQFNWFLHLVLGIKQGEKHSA

Sequence of EPHA8 (P29322 28-1005): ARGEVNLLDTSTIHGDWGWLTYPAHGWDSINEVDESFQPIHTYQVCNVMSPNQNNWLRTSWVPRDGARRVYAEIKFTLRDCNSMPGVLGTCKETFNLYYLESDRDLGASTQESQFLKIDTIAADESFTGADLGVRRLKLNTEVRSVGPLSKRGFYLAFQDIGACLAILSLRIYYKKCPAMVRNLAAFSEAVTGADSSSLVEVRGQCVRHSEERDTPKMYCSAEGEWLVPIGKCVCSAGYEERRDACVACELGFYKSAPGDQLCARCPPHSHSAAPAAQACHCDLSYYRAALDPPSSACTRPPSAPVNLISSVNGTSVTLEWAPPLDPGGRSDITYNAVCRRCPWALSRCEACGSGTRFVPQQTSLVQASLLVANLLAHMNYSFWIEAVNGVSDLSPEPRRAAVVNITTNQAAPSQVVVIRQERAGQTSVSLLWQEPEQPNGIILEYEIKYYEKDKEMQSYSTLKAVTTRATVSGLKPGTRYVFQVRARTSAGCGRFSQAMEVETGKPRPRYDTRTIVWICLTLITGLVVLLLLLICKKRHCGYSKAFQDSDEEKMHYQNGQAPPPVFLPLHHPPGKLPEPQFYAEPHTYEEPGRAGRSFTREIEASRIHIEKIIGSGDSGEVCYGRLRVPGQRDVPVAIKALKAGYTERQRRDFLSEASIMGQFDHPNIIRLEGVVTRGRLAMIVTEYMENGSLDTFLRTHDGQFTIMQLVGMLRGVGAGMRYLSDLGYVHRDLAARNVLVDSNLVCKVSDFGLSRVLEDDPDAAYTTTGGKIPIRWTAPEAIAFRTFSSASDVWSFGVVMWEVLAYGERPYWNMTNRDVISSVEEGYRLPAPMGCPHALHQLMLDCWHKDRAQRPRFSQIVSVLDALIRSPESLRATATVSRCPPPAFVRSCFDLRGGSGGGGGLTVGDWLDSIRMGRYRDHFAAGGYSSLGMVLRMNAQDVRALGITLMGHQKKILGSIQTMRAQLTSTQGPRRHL
Sequence of BMPR1A (P36894 24-532): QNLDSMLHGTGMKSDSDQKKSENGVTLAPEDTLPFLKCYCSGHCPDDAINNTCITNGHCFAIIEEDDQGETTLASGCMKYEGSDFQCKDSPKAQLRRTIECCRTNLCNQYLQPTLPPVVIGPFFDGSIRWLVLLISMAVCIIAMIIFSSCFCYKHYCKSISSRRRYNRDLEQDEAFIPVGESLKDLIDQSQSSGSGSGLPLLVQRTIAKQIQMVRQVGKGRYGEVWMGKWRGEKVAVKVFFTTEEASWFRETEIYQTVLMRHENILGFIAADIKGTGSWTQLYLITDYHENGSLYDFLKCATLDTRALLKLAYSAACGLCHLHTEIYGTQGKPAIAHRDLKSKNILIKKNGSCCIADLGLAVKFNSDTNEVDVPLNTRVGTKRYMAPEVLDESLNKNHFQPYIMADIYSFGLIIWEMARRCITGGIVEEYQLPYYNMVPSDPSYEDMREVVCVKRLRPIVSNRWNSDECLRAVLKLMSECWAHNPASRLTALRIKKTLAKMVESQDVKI
Sequence of CSNK2A1 (P68400 whole entry): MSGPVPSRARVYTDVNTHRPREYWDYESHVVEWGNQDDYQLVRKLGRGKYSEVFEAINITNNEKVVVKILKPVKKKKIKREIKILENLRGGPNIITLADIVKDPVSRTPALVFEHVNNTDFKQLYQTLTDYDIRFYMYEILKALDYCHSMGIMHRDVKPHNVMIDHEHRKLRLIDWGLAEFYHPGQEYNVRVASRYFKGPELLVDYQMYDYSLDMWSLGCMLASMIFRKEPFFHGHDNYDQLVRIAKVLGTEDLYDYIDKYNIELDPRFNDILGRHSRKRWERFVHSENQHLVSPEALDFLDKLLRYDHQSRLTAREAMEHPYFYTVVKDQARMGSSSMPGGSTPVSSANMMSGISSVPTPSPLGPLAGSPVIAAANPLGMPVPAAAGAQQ
Sequence of PYK2 (Q14289 whole entry): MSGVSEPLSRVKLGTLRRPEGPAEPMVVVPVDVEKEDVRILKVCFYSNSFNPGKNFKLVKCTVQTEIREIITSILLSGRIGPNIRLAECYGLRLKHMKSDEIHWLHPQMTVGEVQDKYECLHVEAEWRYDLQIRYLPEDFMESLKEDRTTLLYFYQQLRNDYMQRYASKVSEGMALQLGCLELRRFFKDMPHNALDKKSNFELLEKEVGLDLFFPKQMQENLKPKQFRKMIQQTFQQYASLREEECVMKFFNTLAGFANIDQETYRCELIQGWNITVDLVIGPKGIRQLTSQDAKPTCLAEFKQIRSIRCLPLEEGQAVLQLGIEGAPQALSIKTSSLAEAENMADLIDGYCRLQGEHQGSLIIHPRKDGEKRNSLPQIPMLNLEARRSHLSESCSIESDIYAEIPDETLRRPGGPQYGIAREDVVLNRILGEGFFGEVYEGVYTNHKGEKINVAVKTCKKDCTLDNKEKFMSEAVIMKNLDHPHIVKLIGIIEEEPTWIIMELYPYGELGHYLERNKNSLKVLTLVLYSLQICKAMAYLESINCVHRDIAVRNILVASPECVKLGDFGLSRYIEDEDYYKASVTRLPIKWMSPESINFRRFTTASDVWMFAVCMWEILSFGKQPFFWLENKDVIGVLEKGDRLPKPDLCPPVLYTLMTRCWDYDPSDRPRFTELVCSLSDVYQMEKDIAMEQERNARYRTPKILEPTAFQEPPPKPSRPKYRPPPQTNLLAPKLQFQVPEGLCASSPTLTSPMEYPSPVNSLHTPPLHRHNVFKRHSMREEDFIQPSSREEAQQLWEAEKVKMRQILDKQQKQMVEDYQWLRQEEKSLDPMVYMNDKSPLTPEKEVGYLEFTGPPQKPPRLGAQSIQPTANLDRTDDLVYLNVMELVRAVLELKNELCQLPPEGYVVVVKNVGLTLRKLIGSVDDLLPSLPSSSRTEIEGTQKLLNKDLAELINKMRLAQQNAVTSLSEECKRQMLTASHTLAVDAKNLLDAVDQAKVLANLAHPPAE
Sequence of CLK3 (P49761 whole entry): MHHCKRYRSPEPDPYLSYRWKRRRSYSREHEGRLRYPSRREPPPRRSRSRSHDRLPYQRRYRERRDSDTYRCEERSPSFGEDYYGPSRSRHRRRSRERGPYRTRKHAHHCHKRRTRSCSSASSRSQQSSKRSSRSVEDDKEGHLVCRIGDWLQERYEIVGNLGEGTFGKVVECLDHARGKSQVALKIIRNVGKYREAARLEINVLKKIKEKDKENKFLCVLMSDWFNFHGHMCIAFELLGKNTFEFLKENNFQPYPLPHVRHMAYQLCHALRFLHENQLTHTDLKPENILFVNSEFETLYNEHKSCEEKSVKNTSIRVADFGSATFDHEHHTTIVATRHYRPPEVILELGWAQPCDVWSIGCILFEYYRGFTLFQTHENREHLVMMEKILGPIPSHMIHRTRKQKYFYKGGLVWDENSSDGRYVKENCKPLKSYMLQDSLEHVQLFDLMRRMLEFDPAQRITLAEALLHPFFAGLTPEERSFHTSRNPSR
Sequence of CAMK1 (Q14012 whole entry): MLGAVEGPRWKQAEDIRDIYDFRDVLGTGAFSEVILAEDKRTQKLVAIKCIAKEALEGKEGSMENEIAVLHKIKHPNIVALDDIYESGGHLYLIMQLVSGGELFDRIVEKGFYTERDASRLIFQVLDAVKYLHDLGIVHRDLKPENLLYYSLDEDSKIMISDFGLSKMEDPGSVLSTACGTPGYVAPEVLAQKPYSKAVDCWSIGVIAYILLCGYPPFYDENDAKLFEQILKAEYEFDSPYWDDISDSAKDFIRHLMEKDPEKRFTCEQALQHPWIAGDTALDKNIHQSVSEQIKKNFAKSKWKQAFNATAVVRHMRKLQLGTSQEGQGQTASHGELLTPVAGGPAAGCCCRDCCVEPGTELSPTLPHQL

Row | SMILES | remaining binding at 10 µM (AMPK-alpha1) | remaining binding at 10 µM (PRKCQ) | remaining binding at 10 µM (BMPR1A) | remaining binding at 10 µM (PIK3C2G) | remaining binding at 10 µM [1] | remaining binding at 10 µM [2] | remaining binding at 10 µM (ACVR1) | remaining binding at 10 µM (BRSK1) | remaining binding at 10 µM [3] | remaining binding at 10 µM (PYK2) | remaining binding at 10 µM (PIK3CA(C420R)) | remaining binding at 10 µM (CLK3) | remaining binding at 10 µM (PFPK5(P. falciparum)) | remaining binding at 10 µM (EPHA8) | remaining binding at 10 µM (MST1R) | remaining binding at 10 µM (PLK3) | remaining binding at 10 µM (ERK5) | remaining binding at 10 µM (BMPR1B) | remaining binding at 10 µM (PFTK1) | remaining binding at 10 µM (CAMK2B) | other results
1 | COc1cc(N2CCC(N3CCN(C)CC3)CC2)ccc1Nc1ncc2c(n1)N(C)c1sc(C)nc1C(=O)N2 [Compound 3, 6-((2-methoxy-4-(4-(4-methylpiperazin-1-yl)piperidin-1-yl)phenyl)amino)-2,4-dimethyl-4,9-dihydro-10H-pyrimido[5,4-b]thiazolo[5,4-e][1,4]diazepin-10-one] | 79% | 89% | 81% | 69% | 69% | 83% | 93% | 69% | 99% | 41% | 90% | 97% | 100% | 64% | 90% | 52% | 80% | 88% | 90% | 81% | remaining binding at 10 µM (MAP4K3): 100%; remaining binding at 10 µM (PFCDPK1(P. falciparum)): 100%; remaining binding at 10 µM (PIK3C2B): 86%; remaining binding at 10 µM (TNIK): 94%; remaining binding at 10 µM (CTK): 98%; remaining binding at 10 µM (PAK1): 64%; remaining binding at 10 µM (AKT2): 75%; remaining binding at 10 µM (MINK): 100%; remaining binding at 10 µM (DAPK2): 60%; remaining binding at 10 µM (CSNK2A1): 93%; remaining binding at 10 µM (CAMK1): 100%; remaining binding at 10 µM (RET(V804L)): 95%; remaining binding at 10 µM (PAK6): 97%; remaining binding at 10 µM (CLK4): 76%; remaining binding at 10 µM (PIK3CG): 93%
2 | COc1cc(N2CCC(N3CCN(C)CC3)CC2)ccc1Nc1ncc2c(n1)N(C)c1sc(C)nc1C(=O)N2C [Compound 5, 6-((2-methoxy-4-(4-(4-methylpiperazin-1-yl)piperidin-1-yl)phenyl)amino)-2,4,9-trimethyl-4,9-dihydro-10H-pyrimido[5,4-b]thiazolo[5,4-e][1,4]diazepin-10-one] | 91% | 88% | 97% | 100% | 67% | 100% | 93% | 100% | 97% | 85% | 100% | 97% | 97% | 100% | 100% | 20% | 30% | 94% | 100% | 93% | remaining binding at 10 µM (MAP4K3): 100%; remaining binding at 10 µM (PFCDPK1(P. falciparum)): 99%; remaining binding at 10 µM (PIK3C2B): 100%; remaining binding at 10 µM (TNIK): 99%; remaining binding at 10 µM (CTK): 96%; remaining binding at 10 µM (PAK1): 92%; remaining binding at 10 µM (AKT2): 100%; remaining binding at 10 µM (MINK): 100%; remaining binding at 10 µM (DAPK2): 83%; remaining binding at 10 µM (CSNK2A1): 95%; remaining binding at 10 µM (CAMK1): 92%; remaining binding at 10 µM (RET(V804L)): 93%; remaining binding at 10 µM (PAK6): 100%; remaining binding at 10 µM (CLK4): 85%; remaining binding at 10 µM (PIK3CG): 88%

— patent US12365696B2, “Small-molecule focal adhesion kinase (FAK) inhibitors” (DANA-FARBER CANCER INSTITUTE, INC., priority 2019, dated 2025)
